From patent US7214495B2, “Screening method” (Takeda Pharmaceutical Company Limited, priority 2002, dated 2007)

What was measured:
[1] = system: mouse pancreatic β cell line MIN6; test: Insulin secretion from MIN6 in KRBH buffer (immunoassay); format: cell-based; details: for insulin secretion enhancing activity: 22 mM glucose KRBH, 90 minutes; for insulin secretion activity in BSA-containing buffer / insulin secretion enhancing activity in buffer containing Nifedipine / insulin secretion enhancing activity in PD98059-containing buffer / insulin secretion enhancing activity, glucose dependency: 10 μM fatty acid; for insulin secretion activity in BSA-containing buffer: 0.1% fatty acid-free BSA; for insulin secretion enhancing activity in buffer containing Nifedipine: Nifedipine 10 μM; for insulin secretion enhancing activity in PD98059-containing buffer: PD98059 50 μM; for insulin secretion enhancing activity, glucose dependency: high glucose level conditions of at least 11 mM (0, 5.5, 11, 22 mM tested); for insulin secretion enhancing activity in buffer without Ca^2+ ions: 10 μM, no Ca^2+ ions, 0.1 mM EGTA, 22 mM glucose; for insulin secretion enhancing activity in m40i103-introduced MIN6: GPR40-specific siRNA m40i103 introduced; for insulin secretion enhancing activity in MIN6 introduced with Scramble II duplex siRNA: random siRNA control
Procedure: The mouse pancreatic β cell line MIN6 incubated in a flask was scraped in PBS containing 2.5 mM EDTA and plated in a 96-well plate followed by incubation for 2 days. The medium used was the same as in EXAMPLE 24, namely, 4.5 g/l of glucose-containing Dulbecco's Modified Eagle Medium (DMEM, Invitrogen, Inc.) supplemented with 15% fetal calf serum (ThermoTrace, Inc.), 5.5 μM 2-mercaptethanol (Invitrogen, Inc.), 20 mM HEPES pH 7.3, 100 U/ml penicillin and 100 μg/ml streptomycin. The cells were washed twice with modified Krebs-Ringer bicarbonate buffer (KRBH, 116 mM NaCl, 4.7 mM KCl, 1.2 mM KH2PO4, 1.2 mM MgSO4, 2.5 mM CaCl2, 25 mM NaHCO3, 24 mM HEPES, pH 7.3), followed by preincubation at 37° C. in 5% CO2 for 30 minutes. The fatty acid diluted/prepared using the aforesaid KRBH buffer added with 22 mM glucose was added to the cells after the preincubation, followed by incubation under the conditions of 37° C. in 5% CO2 for 90 minutes. After the incubation, the supernatant of the cells was recovered and stored in a frozen state. The insulin content in the supernatant was assayed using an insulin immunoassay kit commercially available (Amersham Pharmacia, Inc.).
Based on the method of EXAMPLE 25, effects of glucose level when added with fatty acids were examined. The level of glucose, which was added to KRBH upon the addition of fatty acids, was varied to 0, 5.5, 11 and 22 mM to study the effects.
The insulin secretion enhancing activity in the m40i103-introduced MIN6 cells using HVJ Envelope VECTOR KIT GenomONE based on the method of EXAMPLE 18 was examined. The insulin secretion enhancing activity by fatty acids was examined according to the method of EXAMPLE 25.
Based on the procedures of EXAMPLE 25, an essential prerequisite of Ca^2+ ions in the extracellular fluid was examined. In preincubation and incubation with a sample, Ca^2+ ions were removed and 0.1 mM EGTA, which was a reagent for chelating Ca^2+ ions, was further added, and then the insulin secretion enhancing activity by fatty acids was examined in this case.
Based on the method of EXAMPLE 25, effects of Ca^2+ channel blocker (Nifedipine) and MAP kinase inhibitor (PD98059) were examined. In preincubation and incubation with a sample, the insulin secretion enhancing activity by fatty acids was examined when Nifedipine (10 μM) or PD98059 (50 μM) was added.
It is known that fatty acids have the property of binding to albumin. Based on the method of EXAMPLE 25, effects were examined when bovine serum albumin (BSA) was present. In preincubation and incubation with a sample, the insulin secretion activity by fatty acids was examined when 0.1% BSA was added to the buffer.

[2] = molecular target: T1, Mouse GPR40 (Mus musculus, UniProt Q76JU9); test: cAMP production in mouse GPR40-expressed CHO cells; format: cell-based; details: 10 minutes; for cAMP production activity, presence of forskolin: 2 μM forskolin
T1 construct: expressed in transfected cells
T1 sequence (Q76JU9 whole entry): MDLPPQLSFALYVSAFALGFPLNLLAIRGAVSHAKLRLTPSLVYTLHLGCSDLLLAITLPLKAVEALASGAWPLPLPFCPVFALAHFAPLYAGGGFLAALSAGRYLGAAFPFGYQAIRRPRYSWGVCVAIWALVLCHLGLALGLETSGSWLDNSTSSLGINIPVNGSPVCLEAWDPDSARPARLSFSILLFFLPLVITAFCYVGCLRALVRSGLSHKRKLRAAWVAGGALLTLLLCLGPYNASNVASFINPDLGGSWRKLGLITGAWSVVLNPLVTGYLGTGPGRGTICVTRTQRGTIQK
Procedure: Human and mouse GPR40-expressed CHO cells were incubated for 20 hours in a 96-well Plate at a density of 1×10^5/well. After the cells were washed twice with 100 μl of Assay Buffer (DMEM (Invitrogen) containing 0.1 mM IBMX (Wako Pure Chemical) and 0.1 mM Ro-20-1724 (Biomol)), DHA, solutions of linoleic acid and […] (both by SIGMA) in Assay Buffer in the presence or absence of 2 μM forskolin (Wako Pure Chemical) were added to the cells, followed by reacting at 37° C. for 10 minutes. After the reaction, the cells were lysed in accordance with the formulation of cAMP Screen (ABI) and the cAMP level in the cells was assayed.

| Structure (SMILES) | insulin secretion enhancing activity [1] | cAMP production activity, presence of forskolin [2] | cAMP production activity, absence of forskolin [2] | insulin secretion activity in BSA-containing buffer [1] | insulin secretion enhancing activity in buffer containing Nifedipine [1] | insulin secretion enhancing activity in PD98059-containing buffer [1] | insulin secretion enhancing activity, glucose dependency [1] | insulin secretion enhancing activity in buffer without Ca^2+ ions [1] | insulin secretion enhancing activity in m40i103-introduced MIN6 [1] | insulin secretion enhancing activity in MIN6 introduced with Scramble II duplex siRNA [1] |
| --- | --- | --- | --- | --- | --- | --- | --- | --- | --- | --- |
| CCCCC/C=C\C/C=C\C/C=C\C/C=C\CCCC(=O)O [Arachidonic acid (C20:4), Arachidonic acid] | significantly noted |  |  |  |  |  |  |  |  |  |
| CC/C=C\C/C=C\C/C=C\C/C=C\C/C=C\C/C=C\CCC(=O)O [Docosahexaenoic acid (C22:6), 4Z,7Z,10Z,13Z,16Z,19Z-docosahexaenoic acid] | significantly noted | no activity was shown | did not show any cAMP production activity |  |  |  |  |  |  |  |
| CCCCC/C=C\C/C=C\CCCCCCCC(=O)O [Linoleic acid (C18:2), Linoleic acid] | significantly noted | no activity was shown | did not show any cAMP production activity | almost suppressed | not appreciated | same results as in ordinary buffer | remarkable | not observed | no longer noted | retained |
| CCCCCCCC/C=C\CCCCCCCC(=O)O [Oleic acid (C18:1), Oleic acid] | significantly noted |  |  | almost suppressed | not appreciated | same results as in ordinary buffer | remarkable | not observed |  |  |
| CCCCC/C=C\C/C=C\C/C=C\CCCCC(=O)O [γ-Linolenic acid (C18:3), γ-Linolenic acid] | significantly noted | no activity was shown | did not show any cAMP production activity |  |  |  |  | not observed | no longer noted | retained |
